Data as given in patent US12162820B2 (TAIWANJ PHARMACEUTICALS CO., LTD., priority 2019, dated 2024).

Assays:
Assay type in all cases: biochemical
ATX (autotaxin) = target: T1, ATX (autotaxin) (Homo sapiens, UniProt Q13822); experiment: Autotaxin Inhibition Screening Assay (choline release from LPC, LPC-CR); details: for inhibition at 4 µM: 4 μM compound; for inhibition at 20 µM: 20 μM compound; for inhibition at 50 µM: 50 μM compound
T1 construct: purchased Cayman 10803
Procedure: ATX (autotaxin) activity was measured by choline release from LPC in presence or absence of test compounds (Compounds 1˜83; at concentrations of 4 μM, 20 μM and 50 μM). Twenty (20) ng ATX (10803, Cayman, MI, USA) was incubated with 100 μM 14:0 LPC (855575P, Avanti, AL, USA) in a final volume of 100 μL buffer containing 50 mM Tris pH 8.0, 0.01% Triton X-100, 50 mM CaCl2, 1 unit/ml choline oxidase, 2 unit/ml horseradish peroxidase (HRP), 2 mM homovanilic acid (HVA). The relative amount of released choline was measured by HVA fluorescence in a 96-well plate. Fluorescent intensity was determined at λex/λem=320/450 nm every 60 sec for 90 min with a SpectraMax i3 (Molecular Devices, CA, USA). Data analysis was performed using GraphPad Prism (GraphPad, La Jolla CA, USA). Inhibition %=[1−(SlopeTA−SlopeBlank)/(SlopeVehicle−SlopeBlank)]×100% HDAC Inhibition Screening Assay

HDAC2 = target: T2, HDAC2 (Homo sapiens, UniProt Q92769); experiment: HDAC Inhibition Screening Assay (FLUOR DE LYS Fluorimetric Drug Discovery Kit), HDAC2; details: for inhibition at 2 µM: 2 μM compound; for inhibition at 10 µM: 10 μM compound; for inhibition at 50 µM: 50 μM compound
T2 construct: purchased Enzo Life Sciences
T2 sequence (Q92769 whole entry): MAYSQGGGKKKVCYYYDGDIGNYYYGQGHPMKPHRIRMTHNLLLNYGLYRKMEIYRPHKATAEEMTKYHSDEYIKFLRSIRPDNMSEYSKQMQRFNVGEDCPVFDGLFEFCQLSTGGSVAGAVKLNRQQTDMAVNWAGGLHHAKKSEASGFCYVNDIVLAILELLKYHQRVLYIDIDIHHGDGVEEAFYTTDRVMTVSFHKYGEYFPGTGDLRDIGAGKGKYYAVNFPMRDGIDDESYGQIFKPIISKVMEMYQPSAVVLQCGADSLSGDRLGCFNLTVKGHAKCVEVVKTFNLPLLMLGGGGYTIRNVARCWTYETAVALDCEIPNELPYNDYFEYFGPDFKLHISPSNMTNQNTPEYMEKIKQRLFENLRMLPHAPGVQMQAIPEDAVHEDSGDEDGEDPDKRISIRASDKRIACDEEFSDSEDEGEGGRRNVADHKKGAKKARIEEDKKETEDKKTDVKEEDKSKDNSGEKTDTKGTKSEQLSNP
Procedure: (§1) The HDAC1/HDAC2/HDAC3 in vitro activities are detected by Enzo Life Sciences' HDAC1/HDAC2/HDAC3 Fluorimetric Drug Discovery Kit. The assay is based on the FLUOR DE LYS® Substrate and FLUOR DE LYS® Developer combination. The assay procedure has two steps. First, the FLUOR DE LYS® Substrate, which comprises an acetylated lysine side chain, is incubated with HDAC1/HDAC2/HDAC3, respectively. Deacetylation of the substrate sensitizes the substrate so that, in the second step, treatment with the FLUOR DE LYS® Developer produces a fluorophore. The signals of the test compounds (Compounds 1˜83; at concentrations of 2 μM, 10 μM and 50 μM) in 96-well plates are detected at 360 nm or 485 nm excitation and 460 nm or 530 nm emission with a Molecular Devices SpectraMax i3 Imaging Cytometer. The HDAC1/HDAC2/HDAC3 activities are expressed in percentage of basal control minus baseline control.

HDAC3 = target: T3, HDAC3 (Homo sapiens, UniProt O15379); experiment: HDAC Inhibition Screening Assay (FLUOR DE LYS Fluorimetric Drug Discovery Kit), HDAC3; details: for inhibition at 2 µM: 2 μM compound; for inhibition at 10 µM: 10 μM compound; for inhibition at 50 µM: 50 μM compound
T3 construct: purchased Enzo Life Sciences
T3 sequence (O15379 whole entry): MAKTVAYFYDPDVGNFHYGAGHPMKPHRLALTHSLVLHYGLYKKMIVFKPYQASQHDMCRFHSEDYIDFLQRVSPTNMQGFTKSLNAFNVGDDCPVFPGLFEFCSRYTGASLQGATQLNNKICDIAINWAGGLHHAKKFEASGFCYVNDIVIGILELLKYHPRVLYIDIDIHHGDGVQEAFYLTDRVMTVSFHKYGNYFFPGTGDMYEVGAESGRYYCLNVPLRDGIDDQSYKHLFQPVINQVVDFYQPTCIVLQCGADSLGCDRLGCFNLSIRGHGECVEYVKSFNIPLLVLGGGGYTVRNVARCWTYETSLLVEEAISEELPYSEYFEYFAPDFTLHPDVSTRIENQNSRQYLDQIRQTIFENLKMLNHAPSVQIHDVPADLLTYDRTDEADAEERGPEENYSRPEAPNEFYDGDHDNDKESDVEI
T3 sequence (O75376 395-489 partner limits assumed): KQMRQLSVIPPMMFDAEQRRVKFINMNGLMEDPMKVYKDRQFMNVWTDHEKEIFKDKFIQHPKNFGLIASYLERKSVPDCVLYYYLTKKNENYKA
Procedure: as §1

HDAC1 = target: T4, HDAC1 (Homo sapiens, UniProt Q13547); experiment: HDAC Inhibition Screening Assay (FLUOR DE LYS Fluorimetric Drug Discovery Kit), HDAC1; details: for inhibition at 2 µM: 2 μM compound; for inhibition at 10 µM: 10 μM compound; for inhibition at 50 µM: 50 μM compound
T4 construct: purchased Enzo Life Sciences
T4 sequence (Q13547 whole entry): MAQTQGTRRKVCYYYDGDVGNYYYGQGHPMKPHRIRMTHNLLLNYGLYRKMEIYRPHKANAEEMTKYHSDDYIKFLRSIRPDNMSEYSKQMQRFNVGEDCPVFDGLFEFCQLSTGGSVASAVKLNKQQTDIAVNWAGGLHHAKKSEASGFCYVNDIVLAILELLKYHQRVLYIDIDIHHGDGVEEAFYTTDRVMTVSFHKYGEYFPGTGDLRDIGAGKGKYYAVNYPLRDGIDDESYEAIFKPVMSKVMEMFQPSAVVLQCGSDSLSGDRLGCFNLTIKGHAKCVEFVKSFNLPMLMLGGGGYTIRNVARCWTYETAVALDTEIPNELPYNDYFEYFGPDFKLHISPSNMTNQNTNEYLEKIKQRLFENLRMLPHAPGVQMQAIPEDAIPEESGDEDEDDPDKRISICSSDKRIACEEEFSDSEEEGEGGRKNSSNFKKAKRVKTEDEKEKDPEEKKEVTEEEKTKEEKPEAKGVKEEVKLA
Procedure: as §1

inhibition at 4 µM (ATX (autotaxin)) [%] | inhibition at 20 µM (ATX (autotaxin)) [%] | inhibition at 50 µM (ATX (autotaxin)) [%] | inhibition at 2 µM (HDAC2) [%] | inhibition at 10 µM (HDAC2) [%] | inhibition at 50 µM (HDAC2) [%] | inhibition at 2 µM (HDAC3) [%] | inhibition at 10 µM (HDAC3) [%] | inhibition at 50 µM (HDAC3) [%] | inhibition at 2 µM (HDAC1) [%] | inhibition at 10 µM (HDAC1) [%] | inhibition at 50 µM (HDAC1) [%] | SMILES
< 50 | < 50 | < 50 | > 80 | > 80 | > 80 | > 80 | > 80 | > 80 | > 80 | > 80 | > 80 | CCN(CC)c1ccc(C(=O)NC2CCc3cc(/C=C/C(=O)NO)ccc32)cc1 (stereo not drawn) [Compound 28, (E)-4-(diethylamino)-N-(5-(3-(hydroxyamino)-3-oxoprop-1-en-1-yl)-2,3-dihydro-1H-inden-1-yl)benzamide]
< 50 | < 50 | < 50 | < 50 | < 50 | 50 to 80 | < 50 | < 50 | < 50 | < 50 | < 50 | < 50 | CCN(CC)c1ccc(C(=O)NC2CCc3cc(/C=C/C(=O)NCCCCCC(=O)Nc4ccc(F)cc4N)ccc32)cc1 (stereo not drawn) [Compound 29, (E)-N-(5-(3-((6-((2-amino-4-fluorophenyl)amino)-6-oxohexyl)amino)-3-oxoprop-1-en-1-yl)-2,3-dihydro-1H-inden-1-yl)-4-(diethylamino)benzamide]
< 50 | < 50 | 50 to 80 | > 80 | > 80 | > 80 | > 80 | > 80 | > 80 | > 80 | > 80 | > 80 | CCN(CC)c1ccc(C(=O)NC2CCc3cc(/C=C/C(=O)NCCCCCC(=O)NO)ccc32)cc1 (stereo not drawn) [Compound 30, (E)-4-(diethylamino)-N-(5-(3-((6-(hydroxyamino)-6-oxohexyl)amino)-3-oxoprop-1-en-1-yl)-2,3-dihydro-1H-inden-1-yl)benzamide]
< 50 | < 50 | < 50 | > 80 | > 80 | > 80 | 50 to 80 | > 80 | > 80 | < 50 | 50 to 80 | 50 to 80 | Nc1cc(F)ccc1NC(=O)CCCCCNC(=O)/C=C/c1ccc2c(c1)CCC2NC(=O)c1ccc(F)cc1 (stereo not drawn) [Compound 31, (E)-N-(5-(3-((6-((2-amino-4-fluorophenyl)amino)-6-oxohexyl)amino)-3-oxoprop-1-en-1-yl)-2,3-dihydro-1H-inden-1-yl)-4-fluorobenzamide]
< 50 | < 50 | < 50 | > 80 | > 80 | > 80 | 50 to 80 | > 80 | > 80 | > 80 | > 80 | > 80 | O=C(/C=C/c1ccc2c(c1)CCC2NC(=O)c1ccc(F)cc1)NCCCCCC(=O)NO (stereo not drawn) [Compound 32, (E)-4-fluoro-N-(5-(3-((6-(hydroxyamino)-6-oxohexyl)amino)-3-oxoprop-1-en-1-yl)-2,3-dihydro-1H-inden-1-yl)benzamide]
< 50 | < 50 | < 50 | 50 to 80 | > 80 | > 80 | 50 to 80 | > 80 | > 80 | 50 to 80 | > 80 | > 80 | O=C(/C=C/c1ccc2c(c1)CCC2NCc1cc(C(F)(F)F)cc(C(F)(F)F)c1)NO (stereo not drawn) [Compound 33, (E)-3-(1-((3,5-bis(trifluoromethyl)benzyl)amino)-2,3-dihydro-1H-inden-5-yl)-N-hydroxyacrylamide]
< 50 | < 50 | < 50 | 50 to 80 | > 80 | > 80 | < 50 | 50 to 80 | > 80 | < 50 | > 80 | > 80 | O=C(/C=C/c1ccc2c(c1)CCC2OCc1cc(C(F)(F)F)cc(C(F)(F)F)c1)NO (stereo not drawn) [Compound 34, (E)-3-(1-((3,5-bis(trifluoromethyl)benzyl)oxy)-2,3-dihydro-1H-inden-5-yl)-N-hydroxyacrylamide]
< 50 | < 50 | < 50 | < 50 | < 50 | < 50 | < 50 | < 50 | 50 to 80 | < 50 | < 50 | < 50 | Nc1cc(F)ccc1NC(=O)/C=C/c1ccc2c(c1)CCCC2OCc1cc(C(F)(F)F)cc(C(F)(F)F)c1 (stereo not drawn) [Compound 35, (E)-N-(2-amino-4-fluorophenyl)-3-(5-((3,5-bis(trifluoromethyl)benzyl)oxy)-5,6,7,8-tetrahydronaphthalen-2-yl)acrylamide]
< 50 | < 50 | < 50 | 50 to 80 | > 80 | > 80 | < 50 | 50 to 80 | > 80 | < 50 | > 80 | > 80 | O=C(/C=C/c1ccc2c(c1)CCCC2OCc1cc(C(F)(F)F)cc(C(F)(F)F)c1)NO (stereo not drawn) [Compound 36, (E)-3-(5-((3,5-bis(trifluoromethyl)benzyl)oxy)-5,6,7,8-tetrahydronaphthalen-2-yl)-N-hydroxy acrylamide]
< 50 | < 50 | < 50 | > 80 | > 80 | > 80 | > 80 | > 80 | > 80 | > 80 | > 80 | > 80 | O=C(/C=C/c1ccc2c(c1)CCC2N1CC(=O)N(c2cc(Cl)cc(Cl)c2)C1=O)NO (stereo not drawn) [Compound 37, (E)-3-(1-(3-(3,5-dichlorophenyl)-2,4-dioxoimidazolidin-1-yl)-2,3-dihydro-1H-inden-5-yl)-N-hydroxyacrylamide]
< 50 | < 50 | < 50 | > 80 | > 80 | > 80 | > 80 | > 80 | > 80 | > 80 | > 80 | > 80 | COc1ccc(N2C(=O)CN(C3CCc4cc(/C=C/C(=O)NO)ccc43)C2=O)cc1 (stereo not drawn) [Compound 38, (E)-N-hydroxy-3-(1-(3-(4-methoxyphenyl)-2,4-dioxoimidazolidin-1-yl)-2,3-dihydro-1H-inden-5-yl)acrylamide]
< 50 | < 50 | < 50 | < 50 | < 50 | < 50 | < 50 | 50 to 80 | 50 to 80 | < 50 | < 50 | < 50 | Nc1cc(F)ccc1NC(=O)CCCCCCC(=O)NC1CCc2cc(Br)ccc21 (stereo not drawn) [Compound 39, N^1-(2-amino-4-fluorophenyl)-N8-(5-bromo-2,3-dihydro-1H-inden-1-yl)octanediamide]
< 50 | < 50 | < 50 | > 80 | > 80 | > 80 | > 80 | > 80 | > 80 | 50 to 80 | > 80 | > 80 | O=C(CCCCCCC(=O)NC1CCc2cc(Br)ccc21)NO (stereo not drawn) [Compound 40, N1-(5-bromo-2,3-dihydro-1H-inden-1-yl)-N8-hydroxyoctanediamide]
